Earlier results in patent publication US10314873B2, “Method of treatment of diseases using hoodia extracts” (HADASIT MEDICAL RESEARCH SERVICES & DEVELOPMENT LTD., priority 2008, dated 2019).

What was measured:
Liver = details: P57 studies
hypothalamic neurons = details: icv injection of purified P57

C/C=C(\C)C(=O)O[C@@H]1C[C@H]2[C@@H](CC=C3C[C@@H](O[C@H]4C[C@H](OC)[C@H](O[C@H]5C[C@H](OC)[C@H](O[C@@H]6O[C@H](C)[C@@H](O)[C@H](OC)[C@H]6O)[C@@H](C)O5)[C@@H](C)O4)CC[C@@]32C)[C@@]2(O)CC[C@H](C(C)=O)[C@@]12C [P57, (3β,12β,14β)-3-[(O-6-Deoxy-3-O-methyl-β-D-glucopyranosyl-(1→4)-O-2,6-dideoxy-3-O-methyl-β-D-ribohexopyranosyl-(1→4)-2,6-dideoxy-3-O-methyl-β-D-ribo-hexopyranosyl)oxy]-14-hydroxy-12-[[(2E)-2-methyl-1-oxo-2-butenyl]oxy]pregn-5-en-20-one]
reduction of liver ATP content (Liver): about 60%
increase of ATP content in hypothalamic neurons (hypothalamic neurons): 50-150%
